From the supplement of paper PMC11451515

Key:
Settings in all cases: 48 h
NOMO1 [1] = test: cell viability relative to DMSO control; higher = less cytotoxic
How it was run: (§1)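 Viability is expressed as a percentage of DMSO wells within each plate, and cell-free wells serve as background. Seeding densities in the 1536-well plates (5 μl) were 500 cells/well for NOMO1 or SEM leukemia cells and 1000 cells/well for P12-Ichikawa. Each line was adapted for at least four passages in each medium. Library compounds in DMSO were pin-dosed at 47 μM to 0.79 nM (11 points, threefold), and CellTiter-Glo One luminescence was read after 48 h at 37°C.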

P12-Ichikawa [2] = test: as above
How it was run: as §1

SEM cells [3] = test: as above
How it was run: as §1

NOMO1 [4] = test: AUC of viability dose-response curve (% viability x log10 dose units); higher = less sensitive
How it was run: (§2)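 Library compounds in DMSO were applied for 48 h at 37°C at 11 threefold doses (47 μM to 0.79 nM) to medium-adapted leukemia cells in 1536-well plates holding 500 or 1000 cells/well. Luminescence from CellTiter-Glo One was normalised plate by plate against DMSO and cell-free wells. Area under the curve came from trapezoidal integration of a log-logistic fit, after scaling curves that rose above full viability and discarding those that failed quality control. The fit had four parameters and used log10 doses.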

P12-Ichikawa [5] = test: as above
How it was run: as §2

SEM cells [6] = test: as above
How it was run: as §2

CO[C@@H](C(=O)N1Cc2[nH]nc(NC(=O)c3ccc(N4CCN(C)CC4)cc3)c2C1)c1ccccc1
cell viability [%]
Settings	NOMO1 [1]	P12-Ichikawa [2]	SEM cells [3]
HPLM + 10% dialyzed FBS, 0.000781 µM	88	89.1	95.5
HPLM + 10% dialyzed FBS, 0.00234 µM	93.2	93.6	84.2
HPLM + 10% dialyzed FBS, 0.00702 µM	102	93	103
HPLM + 10% dialyzed FBS, 0.0211 µM	94.2	95.9	90.9
HPLM + 10% dialyzed FBS, 0.0632 µM	72.2	80	71.1
HPLM + 10% dialyzed FBS, 0.19 µM	62.2	35.4	55.6
HPLM + 10% dialyzed FBS, 0.569 µM	58.6	15	38.4
HPLM + 10% dialyzed FBS, 1.71 µM	53.3	20.3	24.6
HPLM + 10% dialyzed FBS, 5.12 µM	54.1	23.2	28.3
HPLM + 10% dialyzed FBS, 15.4 µM	66.8	25	24.3
HPLM + 10% dialyzed FBS, 46.1 µM	71.7	50.8	24.9
RPMI 5 mM glucose + 10% FBS, 0.000781 µM	80.4	90	107
RPMI 5 mM glucose + 10% FBS, 0.00234 µM	79.4	87.3	92.3
RPMI 5 mM glucose + 10% FBS, 0.00702 µM	79.7	84.9	103
RPMI 5 mM glucose + 10% FBS, 0.0211 µM	83.2	89	94.6
RPMI 5 mM glucose + 10% FBS, 0.0632 µM	81.5	75.9	59.3
RPMI 5 mM glucose + 10% FBS, 0.19 µM	64.4	30.3	38.9
RPMI 5 mM glucose + 10% FBS, 0.569 µM	51.5	19.9	23.5
RPMI 5 mM glucose + 10% FBS, 1.71 µM	50.9	28.9	20.5
RPMI 5 mM glucose + 10% FBS, 5.12 µM	55.8	28.3	19.7
RPMI 5 mM glucose + 10% FBS, 15.4 µM	53.4	26.1	15
RPMI 5 mM glucose + 10% FBS, 46.1 µM	56.3	42.3	18.7
RPMI 5 mM glucose + 10% dialyzed FBS, 0.000781 µM	83.7	87.1	87.9
RPMI 5 mM glucose + 10% dialyzed FBS, 0.00234 µM	87.2	95.8	97.1
RPMI 5 mM glucose + 10% dialyzed FBS, 0.00702 µM	88.5	95.9	87.4
RPMI 5 mM glucose + 10% dialyzed FBS, 0.0211 µM	88.7	95.5	90.7
RPMI 5 mM glucose + 10% dialyzed FBS, 0.0632 µM	71.9	82.8	59.8
RPMI 5 mM glucose + 10% dialyzed FBS, 0.19 µM	52.5	34.5	39.5
RPMI 5 mM glucose + 10% dialyzed FBS, 0.569 µM	59.3	28.4	32.2
RPMI 5 mM glucose + 10% dialyzed FBS, 1.71 µM	47.4	37.9	20.2
RPMI 5 mM glucose + 10% dialyzed FBS, 5.12 µM	48.9	39.4	25.1
RPMI 5 mM glucose + 10% dialyzed FBS, 15.4 µM	55.3	42.8	20
RPMI 5 mM glucose + 10% dialyzed FBS, 46.1 µM	54.3	54.8	16.4

AUC of viability dose-response curve
Settings	NOMO1 [4]	P12-Ichikawa [5]	SEM cells [6]
HPLM + 10% dialyzed FBS	352	268	277
RPMI 5 mM glucose + 10% FBS	319	260	247
RPMI 5 mM glucose + 10% dialyzed FBS	319	300	248

C[C@H](CCC(=O)O)[C@H]1CC[C@H]2[C@@H]3[C@H](O)C[C@@H]4C[C@H](O)CC[C@]4(C)[C@H]3CC[C@]12C
cell viability [%]
Settings	NOMO1 [1]	P12-Ichikawa [2]	SEM cells [3]
HPLM + 10% dialyzed FBS, 0.000781 µM	93.9	94.6	79.7
HPLM + 10% dialyzed FBS, 0.00234 µM	93.7	87.9	80.7
HPLM + 10% dialyzed FBS, 0.00702 µM	108	93.9	96.3
HPLM + 10% dialyzed FBS, 0.0211 µM	99.5	92.4	80.3
HPLM + 10% dialyzed FBS, 0.0632 µM	106	98.8	99.9
HPLM + 10% dialyzed FBS, 0.19 µM	98.4	97.5	84
HPLM + 10% dialyzed FBS, 0.569 µM	102	93.3	95
HPLM + 10% dialyzed FBS, 1.71 µM	99	92.8	92.5
HPLM + 10% dialyzed FBS, 5.12 µM	101	92.2	93.5
HPLM + 10% dialyzed FBS, 15.4 µM	120	93.9	84.1
HPLM + 10% dialyzed FBS, 46.1 µM	114	94.2	75.5
RPMI 5 mM glucose + 10% FBS, 0.000781 µM	85	91	75.4
RPMI 5 mM glucose + 10% FBS, 0.00234 µM	88.1	88.4	81.9
RPMI 5 mM glucose + 10% FBS, 0.00702 µM	92.9	89.2	90.3
RPMI 5 mM glucose + 10% FBS, 0.0211 µM	88.6	91.7	96.9
RPMI 5 mM glucose + 10% FBS, 0.0632 µM	101	90.5	87.6
RPMI 5 mM glucose + 10% FBS, 0.19 µM	87.1	90.1	76.5
RPMI 5 mM glucose + 10% FBS, 0.569 µM	102	90.7	91
RPMI 5 mM glucose + 10% FBS, 1.71 µM	91.2	90	80.2
RPMI 5 mM glucose + 10% FBS, 5.12 µM	93.5	88.1	99.1
RPMI 5 mM glucose + 10% FBS, 15.4 µM	90.3	89.8	81.9
RPMI 5 mM glucose + 10% FBS, 46.1 µM	83	95.6	67
RPMI 5 mM glucose + 10% dialyzed FBS, 0.000781 µM	73	81.1	87.5
RPMI 5 mM glucose + 10% dialyzed FBS, 0.00234 µM	80.4	82.7	93.7
RPMI 5 mM glucose + 10% dialyzed FBS, 0.00702 µM	82.5	93.3	105
RPMI 5 mM glucose + 10% dialyzed FBS, 0.0211 µM	84.9	93	95
RPMI 5 mM glucose + 10% dialyzed FBS, 0.0632 µM	88.9	89.6	85.5
RPMI 5 mM glucose + 10% dialyzed FBS, 0.19 µM	88.8	85.3	79.4
RPMI 5 mM glucose + 10% dialyzed FBS, 0.569 µM	83	88.2	91.4
RPMI 5 mM glucose + 10% dialyzed FBS, 1.71 µM	79.8	87.2	92.2
RPMI 5 mM glucose + 10% dialyzed FBS, 5.12 µM	89.2	86.5	95.3
RPMI 5 mM glucose + 10% dialyzed FBS, 15.4 µM	99.2	85.9	95.1
RPMI 5 mM glucose + 10% dialyzed FBS, 46.1 µM	92.4	91.1	79.7

AUC of viability dose-response curve
Settings	NOMO1 [4]	P12-Ichikawa [5]	SEM cells [6]
HPLM + 10% dialyzed FBS	443	448	417
RPMI 5 mM glucose + 10% FBS	436	431	406
RPMI 5 mM glucose + 10% dialyzed FBS	409	418	433
